Measured values published in paper PMC10363979, “Effects of bergapten on the pharmacokinetics of macitentan in rats both in vitro and in vivo” (Frontiers in Pharmacology, 2023).
Read-outs that look alike come from different tables or passages of the source.

Columns and labels:
[1] = Pharmacokinetic interaction between BP and macitentan in rats (plasma macitentan and ACT-132577); assay type: in vivo, Sprague-Dawley rats; conditions: for Cmax / Tmax / AUC(0-inf) / AUC(0-t) / CL/F / MRT last / MRT inf / half-life: Sprague-Dawley, rat, plasma, po, 20 mg/kg, macitentan in plasma, macitentan 20 mg/kg oral; for CL/F: read-out: CLz/F (converted); for MRT last: read-out: MRT(0-t); for MRT inf: read-out: MRT(0-∞); for half-life: read-out: t1/2z (converted)
Experimental: (§1) The concentrations of macitentan and ACT-132577 were determined by UPLC-MS/MS, which consisted of an Acquity I-class UPLC system (Waters Corp., Milford, MA, United States) and a Xevo TQD triple quadrupole mass spectrometer (Waters Corporation, Milford, MA, United States) equipped with an electrospray ionization source. Chromatographic separation was performed on an Acquity UPLC BEH C18 column (2.1 × 100 mm, 1.7 μm) at 40°C. The mobile phase was composed of acetonitrile (solvent A) and water containing 0.1% formic acid (solvent B, pH 2.74). The gradient condition of mobile phases was set with a flow rate of 0.4 mL/min as follows: 0–0.5 min, 20% A; 0.5–1 min, 70% A; 1–2 min, 95% A; 2–2.6 min, 20% A. Positive ion and selective multiple reaction monitoring (SRM) modes were used for quantitative analysis with the precursor to product ion transitions of m/z 588.9→203.4 for macitentan, 546.9→200.6 for ACT-132577, and 285.0→193.0 for diazepam. The cone voltage and collision voltage were 28V, 14 V for macitentan, 26V, 28 V for ACT-132577, and 35V, 30 V for diazepam. The mass spectrometry parameters of the source temperature, desolvation temperature, cone gas flow rate, and desolvation gas flow rate were 150°C, 500°C, 50 L/h, and 1000 L/h, respectively.
Twelve Sprague-Dawley rats were randomly assigned to two groups. BP (10 mg/kg) was continuously administered daily to rats in the experimental group for 7 days, whereas the 0.5% CMC-Na was orally administered once a day to rats in the control group. Rats were fasted overnight before dosing, with free access to water. Macitentan (20 mg/kg) was intragastrically administered 30 min after the last dose of BP or 0.5% CMC-Na on the seventh day. Blood samples (300 μL) were collected from the tail vein into 1.5 mL Eppendorf tubes containing 10 μL heparin sodium at the time points of 0.083, 0.25, 0.5, 1, 2, 3, 4, 6, 8, 12, 24, and 36 h after macitentan administration. Plasma was obtained after centrifugation of the blood samples at 4,000 rpm for 10 min and stored at −80°C for further analysis. Before UPLC-MS/MS analysis, 100 μL plasma was mixed with 200 μL acetonitrile and 30 μL diazepam (500 ng/mL) and then fractionated at 13,000 rpm for 5 min at 4°C. A 150 μL sample of the supernatant was collected for analysis.
All assays were performed in triplicate, and the results are expressed as mean ± standard deviation. The pharmacokinetic parameters of elimination half-life (t1/2), area under the plasma concentration-time curve (AUC), maximal plasma concentration (Cmax), time to peak plasma concentration, plasma clearance (CLz/F), apparent volume of distribution, and mean residence time were calculated using a non-compartment model with DAS software (version 3.2.8, Lishui People’s Hospital, China). Data analysis, statistical comparisons, and graphs were generated using GraphPad Prism software (version 7.0; GraphPad Software Inc., San Diego, CA, United States). Student’s t-test of variance following the least significant difference method was used for comparisons between the control and experimental groups. Statistical significance was set at p < 0.05.

[2] = Stability of macitentan and ACT-132577 in rat plasma (UPLC-MS/MS method validation); assay type: in vitro ADME
Experimental: as §1
Method validation, including accuracy, precision, recovery, matrix effects and stability, was conducted in accordance with the guidelines of the FDA and the European Medicines Agency.

ET receptor = tested on: ET receptor; design: method as in Iglarz et al, 2008; conditions: ref Iglarz et al, 2008, cited from earlier work; for Pharmacological activity of metabolite: Figure 1
[3] = cited from earlier work
[4] = tested on: Rat liver microsomes (RLMs); experiment: Inhibition of macitentan metabolism (ACT-132577 formation) by bergapten and Michaelis-Menten kinetics in rat liver microsomes; assay type: in vitro ADME; conditions: RLMs
Experimental: as §1
(§2) The effects of BP on macitetan metabolism in vitro were investigated using RLMs, HLMs, and rCYP3A4. And, the formation of ACT-132577 was considered as an indicator of inhibitory effect. The 200 μL incubation system contained NADPH (1 mM), potassium phosphate buffer (100mM, pH = 7.4), macitentan, BP, and RLMs (0.3 mg/mL), HLMs (0.2 mg/mL), or rCYP3A4 (0.13 mg/mL). Firstly, a series concentration of macitentan with 1, 2.5, 5, 10, 25, 50 and 100 μM were included in the reaction buffer to determine the Km and Vmax values. Then, a series concentration of BP following 0, 0.01, 0.1, 1, 5, 10, 50 and 100 μM were used for the determination of IC50 value of BP against macitentan. […] The system was pre-incubated at 37°C for 5 min, and 10 μL NADPH was added to initiate the reaction. After incubation for 30 min at 37°C, 200 μL ice-cold acetonitrile and 30 μL diazepam (500 ng/mL) were added to terminate the reaction. The samples were centrifuged at 13,000 rpm for 5 min, and the supernatant fraction (150 μL) was collected for UPLC-MS/MS analysis.

[5] = tested on: macitentan metabolism (formation of ACT-132577); experiment: as above; assay type: in vitro ADME; conditions: rat, rat liver microsomes, pH 7.4, probe macitentan; RLMs 0.3 mg/mL, 30 min, 37°C; read-out: IC50 of BP on macitentan metabolism
Experimental: as §1, §2

[6] = molecular target: human liver microsomes (HLMs) (Homo sapiens, UniProt P08684); experiment: Inhibition of macitentan metabolism (ACT-132577 formation) by bergapten and Michaelis-Menten kinetics in human liver microsomes; assay type: in vitro ADME
Experimental: as §1
as §2, with “After incubation for 30 min at 37°C, 200 μL ice-cold acetonitrile and 30 μL diazepam (500 ng/mL) were added to terminate the reaction. The samples were centrifuged at 13,000 rpm for 5 min, and the supernatant fraction (150 μL) was collected for UPLC-MS/MS analysis.” left out

[7] = molecular target: macitentan metabolism (formation of ACT-132577) (Homo sapiens, UniProt P08684); experiment: as above; assay type: in vitro ADME; conditions: human, pH 7.4
Experimental: as §1
as §2, with “After incubation for 30 min at 37°C, 200 μL ice-cold acetonitrile and 30 μL diazepam (500 ng/mL) were added to terminate the reaction. The samples were centrifuged at 13,000 rpm for 5 min, and the supernatant fraction (150 μL) was collected for UPLC-MS/MS analysis.” left out

[8] = molecular target: T1, recombinant human CYP3A4 (rCYP3A4) (Homo sapiens, UniProt P08684); experiment: Inhibition of macitentan metabolism (ACT-132577 formation) by bergapten and Michaelis-Menten kinetics in recombinant human CYP3A4; assay type: in vitro ADME
T1 construct: made in house
Experimental: as §1
as §2, with “After incubation for 30 min at 37°C, 200 μL ice-cold acetonitrile and 30 μL diazepam (500 ng/mL) were added to terminate the reaction. The samples were centrifuged at 13,000 rpm for 5 min, and the supernatant fraction (150 μL) was collected for UPLC-MS/MS analysis.” left out

[9] = Plasma Cmax of bergapten in rat (literature); assay type: in vivo; conditions: 3 mg/kg bergapten, converted from ng/mL, ref Li et al, 2014
[10] = design: method as in Li et al, 2014; conditions: rat, 3 mg/kg bergapten; ref Li et al, 2014; cited from earlier work
[11] = Inhibition of macitentan metabolism (ACT-132577 formation) by bergapten and Michaelis-Menten kinetics in rat liver microsomes; assay type: in vitro ADME; conditions: rat, rat liver microsomes, pH 7.4; RLMs
Experimental: as §1, §2

[12] = design: method as in Sidharta et al, 2015; conditions: estimated; ref Sidharta et al, 2015; cited from earlier work
[13] = single dose macitentan, ref Atsmon et al, 2013
[14] = control group (0.5% CMC-Na 7 days)
[15] = experimental group (BP 10 mg/kg daily 7 days)
[16] = with BP 10 mg/kg vs without, p < 0.05

T1 sequence (P08684 whole entry): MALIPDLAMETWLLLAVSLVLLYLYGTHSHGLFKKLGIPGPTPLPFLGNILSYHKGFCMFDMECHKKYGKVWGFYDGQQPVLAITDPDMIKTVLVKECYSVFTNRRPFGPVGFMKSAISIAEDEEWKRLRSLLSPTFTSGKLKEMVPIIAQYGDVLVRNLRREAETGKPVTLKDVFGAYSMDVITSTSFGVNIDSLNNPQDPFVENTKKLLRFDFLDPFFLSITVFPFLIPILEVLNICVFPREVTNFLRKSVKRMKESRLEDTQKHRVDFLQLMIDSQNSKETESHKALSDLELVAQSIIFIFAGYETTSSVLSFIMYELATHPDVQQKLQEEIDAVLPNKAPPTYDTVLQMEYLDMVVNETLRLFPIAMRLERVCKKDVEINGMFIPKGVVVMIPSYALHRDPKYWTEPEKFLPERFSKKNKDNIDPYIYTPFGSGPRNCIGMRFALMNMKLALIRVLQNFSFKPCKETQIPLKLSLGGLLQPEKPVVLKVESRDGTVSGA
Sequence of human liver microsomes (HLMs) (P08684 2-503): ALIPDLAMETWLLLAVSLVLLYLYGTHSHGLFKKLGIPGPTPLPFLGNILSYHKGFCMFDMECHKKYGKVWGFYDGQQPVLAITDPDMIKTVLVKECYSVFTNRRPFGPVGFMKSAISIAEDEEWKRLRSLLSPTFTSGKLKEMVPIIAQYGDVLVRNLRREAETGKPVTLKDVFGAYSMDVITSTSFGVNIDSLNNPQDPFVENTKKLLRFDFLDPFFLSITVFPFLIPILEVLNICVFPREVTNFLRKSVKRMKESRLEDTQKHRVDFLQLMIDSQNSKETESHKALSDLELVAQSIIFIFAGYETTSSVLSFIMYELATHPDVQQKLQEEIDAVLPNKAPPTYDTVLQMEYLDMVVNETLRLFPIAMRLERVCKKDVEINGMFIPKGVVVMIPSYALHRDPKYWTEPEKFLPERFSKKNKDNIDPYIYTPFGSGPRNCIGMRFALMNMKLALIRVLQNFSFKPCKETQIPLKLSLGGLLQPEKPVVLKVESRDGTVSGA
Sequence of macitentan metabolism (formation of ACT-132577) (Homo sapiens, UniProt P08684) (P08684 2-503): as above

SMILES: NS(=O)(=O)Nc1ncnc(OCCOc2ncc(Br)cn2)c1-c1ccc(Br)cc1 [ACT-132577]
- Difference in pharmacokinetic parameters, experimental vs control group ([1]; with BP 10 mg/kg vs without, p > 0.05): no significant differences
- Stability RE (%) ([2]; 4°C, 24 h, 30 ng/mL): 106.81%
- Stability RE (%) ([2]; 4°C, 24 h, 900 ng/mL): 104.77%
- Stability RE (%) ([2]; 4°C, 24 h, 9000 ng/mL): 105.28%
- Stability RE (%) ([2]; Room temperature, 6 h, 30 ng/mL): 109.84%
- Stability RE (%) ([2]; Room temperature, 6 h, 900 ng/mL): 106.18%
- Stability RE (%) ([2]; Room temperature, 6 h, 9000 ng/mL): 107.44%
- Stability RE (%) ([2]; −80°C, 7days, 30 ng/mL): 105.76%
- Stability RE (%) ([2]; −80°C, 7days, 900 ng/mL): 107.26%
- Stability RE (%) ([2]; −80°C, 7days, 9000 ng/mL): 103.40%
- Pharmacological activity of metabolite (ET receptor): Active
- Potency relative to macitentan (less potent) (ET receptor; antagonism of the ET receptor): approximately five-fold
- Change in exposure in the presence of rifampin ([3]; ref Bruderer et al, 2012b): no significant change
- Concentrations when macitentan coadministered with St. John’s Wort ([3]; ref Huppertz et al, 2018): unaltered
- Exposure decrease in the presence of ketoconazole [3, 13]: 26%

SMILES: CCCNS(=O)(=O)Nc1ncnc(OCC(=O)O)c1-c1ccc(Br)cc1 [ACT-373898]
- Pharmacological activity of metabolite (ET receptor): Inactive

SMILES: COc1c2ccoc2cc2oc(=O)ccc12 [BP, 5-methoxypsoralen]
- Inhibition mechanism (Lineweaver-Burk) [4]: competitive inhibition
- Ki ([4]; competitive inhibition, read-out: Ki of BP on macitentan metabolism): 1.39 µM
- IC50 at 30 min [5]: 3.84 µM
- Inhibition mechanism (Lineweaver-Burk) ([6]; HLMs): competitive inhibition
- Ki ([6]; human, microsomes): 0.12 µM
- IC50 at 30 min [7]: 17.8 µM
- Inhibition mechanism (Lineweaver-Burk) ([8]; rCYP3A4): competitive inhibition
- IC50 ([8]; rCYP3A4 0.13 mg/mL, 30 min, 37°C, read-out: IC50 of BP on macitentan metabolism): 12.8 µM
- Ki ([8]; read-out: Ki of BP on macitentan metabolism): 5.06 µM
- Cmax [9]: ~2100 nM
- Cmax [10]: around 447.72 ± 30.61 ng/mL

SMILES: CCCNS(=O)(=O)Nc1ncnc(OCCOc2ncc(Br)cn2)c1-c1ccc(Br)cc1 [macitentan]
- Km at 30 min [11]: 4.82 µM
- Vmax of macitentan metabolism [4]: 0.50 nmol/min/mg protein
- Cmax ([1]; control group): 1340 ng/mL
- Tmax ([1]; control group): 1.92 ± 0.8 h
- AUC(0-inf) [1, 14]: 7900 ng·h/mL
- AUC(0-t) [1, 14]: 7870 ng·h/mL
- CL/F ([1]; control group): 43.3 mL/min/kg
- MRT last ([1]; control group): 5.48 ± 0.96 h
- MRT inf ([1]; control group): 5.6 ± 1.08 h
- half-life ([1]; control group): 4.53 ± 0.9 h
- AUC(0-inf) [1, 15]: 20400 ng·h/mL
- AUC(0-t) [1, 15]: 20300 ng·h/mL
- Cmax [1, 15]: 3000 ng/mL
- Tmax [1, 15]: 2.5 ± 0.55 h
- CL/F [1, 15]: 17.8 mL/min/kg
- MRT last [1, 15]: 5.91 ± 0.74 h
- MRT inf [1, 15]: 6.12 ± 0.8 h
- half-life [1, 15]: 5.07 ± 1.15 h
- CLz/F decreased by, experimental vs control group ([1]; with BP 10 mg/kg vs without): 0.59 fold
- AUC(0-t) enhanced by, experimental vs control group [1, 16]: 1.57 fold
- AUC(0-∞) enhanced by, experimental vs control group [1, 16]: 1.58 fold
- Cmax enhanced by, experimental vs control group [1, 16]: 1.24 fold
- Stability RE (%) ([2]; 4°C, 24 h, 4 ng/mL): 107.57%
- Stability RE (%) ([2]; 4°C, 24 h, 160 ng/mL): 104.86%
- Stability RE (%) ([2]; 4°C, 24 h, 1,600 ng/mL): 106.50%
- Stability RE (%) ([2]; Room temperature, 6 h, 4 ng/mL): 113.51%
- Stability RE (%) ([2]; Room temperature, 6 h, 160 ng/mL): 109.43%
- Stability RE (%) ([2]; Room temperature, 6 h, 1,600 ng/mL): 105.63%
- Stability RE (%) ([2]; −80°C, 7days, 4 ng/mL): 104.39%
- Stability RE (%) ([2]; −80°C, 7days, 160 ng/mL): 103.80%
- Stability RE (%) ([2]; −80°C, 7days, 1,600 ng/mL): 105.44%
- oral bioavailability [12]: 74%
- Exposure reduction in the presence of rifampin ([3]; ref Bruderer et al, 2012b): four-fold
- Exposure reduced to, coadministered with St. John’s Wort ([3]; ref Huppertz et al, 2018): approximately half
- Exposure increase in the presence of ketoconazole [3, 13]: approximately two-fold
